Where two headings read alike, the source gives them in different places.
How the values were obtained:
[1] = system: Wnt reporter (TCF/LEF1 promoter); assay: HEK STF293 Wnt reporter (TOPFlash) luciferase assay, Steady Glo normalised to Cell Titer; type: cell-based, human
Protocol: All compounds were tested using the human cell line HEK STF293. This cell line carries a Wnt reporter (TCF/LEF1 promoter), which drives expression of the firefly luciferase protein. The level of Wnt activity is directly correlated with the level of luciferase activity (determined using a simple assay). Compounds that inhibit Wnt signaling by reducing luciferase activity in these two cell lines are further tested biochemically. […] Compounds were further tested in a Viability assay using Wnt-dependent HCT116 cell line. Compounds were prepared as 10 mM stocks for each compound in DMSO. Dilutions were prepared in a 96-well plate in DMSO. The stock dilutions are as follows: 10 mM, 1 mM, 100 μM, 10 μM, 100 nM, and 10 nM. Plates were sealed and stored at −20° C. […] On the first day, Wnt3a-conditioned media (1:1) were added along with diluted compounds (1:100). […] The final concentrations should therefore be 100 μM, 10 μM, 1 μM, 100 nM, 10 nM, and 1 nM. On the second day, the media was removed and 75 μL of Passive Lysis Buffer (Promega) is added to each well. The plate was shaken at 130 rpm for 15 minutes. For the Steady Glo assay, 45 μL of the lysis was removed and added to a white 96-well plate containing 45 μL/well of Steady Glo solution (Promega). For the Cell Titer assay, 25 μL of the lysis was transferred to a white 96-well plate containing 25 μL/well of Cell Titer solution (Promega). Both Steady Glo and Cell Titer assays were read with a luminescence plate reader. When determining EC50, the Steady Glo values were divided by the Cell Titer values to normalize for cell number. All compounds were tested using the human cell line HEK STF293. This cell line carries a Wnt reporter (TCF/LEF1 promoter), which drives expression of the firefly luciferase protein. The level of Wnt activity is directly correlated with the level of luciferase activity (determined using a simple assay). Compounds that inhibit Wnt signaling by reducing luciferase activity in these two cell lines are further tested biochemically. […] Compounds were further tested in a Viability assay using Wnt-dependent HCT116 cell line. Compounds were prepared as 10 mM stocks for each compound in DMSO. Dilutions were prepared in a 96-well plate in DMSO. The stock dilutions are as follows: 10 mM, 1 mM, 100 μM, 10 μM, 100 nM, and 10 nM. Plates were sealed and stored at −20° C. […] On the first day, Wnt3a-conditioned media (1:1) were added along with diluted compounds (1:100). […] The final concentrations should therefore be 100 μM, 10 μM, 1 μM, 100 nM, 10 nM, and 1 nM. On the second day, the media was removed and 75 μL of Passive Lysis Buffer (Promega) is added to each well. The plate was shaken at 130 rpm for 15 minutes. For the Steady Glo assay, 45 μL of the lysis was removed and added to a white 96-well plate containing 45 μL/well of Steady Glo solution (Promega). For the Cell Titer assay, 25 μL of the lysis was transferred to a white 96-well plate containing 25 μL/well of Cell Titer solution (Promega). Both Steady Glo and Cell Titer assays were read with a luminescence plate reader. When determining EC50, the Steady Glo values were divided by the Cell Titer values to normalize for cell number. All compounds were tested using the human cell line HEK STF293. This cell line carries a Wnt reporter (TCF/LEF1 promoter), which drives expression of the firefly luciferase protein. The level of Wnt activity is directly correlated with the level of luciferase activity (determined using a simple assay). Compounds that inhibit Wnt signaling by reducing luciferase activity in these two cell lines are further tested biochemically. […] Compounds were further tested in a Viability assay using Wnt-dependent HCT116 cell line. Compounds were prepared as 10 mM stocks for each compound in DMSO. Dilutions were prepared in a 96-well plate in DMSO. The stock dilutions are as follows: 10 mM, 1 mM, 100 μM, 10 μM, 100 nM, and 10 nM. Plates were sealed and stored at −20° C. […]

[2] = system: Wnt-dependent HCT116 cell line; assay: Viability assay using Wnt-dependent HCT116 cell line (Cell Titer Glo); type: cell-based
Protocol: All compounds were tested using the human cell line HEK STF293. This cell line carries a Wnt reporter (TCF/LEF1 promoter), which drives expression of the firefly luciferase protein. The level of Wnt activity is directly correlated with the level of luciferase activity (determined using a simple assay). Compounds that inhibit Wnt signaling by reducing luciferase activity in these two cell lines are further tested biochemically. […] Compounds were further tested in a Viability assay using Wnt-dependent HCT116 cell line. HEK293 cells were seeded in a 6-well plate at approximately 8.0×10^5 cells (2 mL per well). On the first day, Wnt3a-conditioned media (1:1) and compounds (1:100) were added to the plated cells. The final concentrations of compounds were 1 μM, 500 nM, and 100 nM. Vehicle (DMSO) and a Wnt3a-conditioned media plus Vehicle samples were also prepared as controls. Lysates were collected (with non-denaturing lysis buffer) after 24 hours incubation, and protein concentrations determined by Bradford Assay. Immunoblotting with an anti-beta-catenin antibody (equivalent amounts of protein/lane for each condition) were subsequently performed to determine beta-catenin levels. HCT116 cells were seeded at 2,500 cells/well in a 96-well dish (Volume: 100 μL/well). On the second day, the 10 mM stock solution of each test compound was thawed at room temperature. Dilutions of the test compound were prepared in DMSO in a V-bottom 96-well plate. The stock compound solution, DMSO-diluted compound solutions, and DMSO were further diluted 500-fold in cell culture media, and 100 μL of the compound- or DMSO-containing cell culture media was added to each well of the cells. […] The final DMSO concentration was 0.1% in all wells. On the fifth day, 150 μL of media was removed from each well. 50 μL/well Cell Titer Glo reagent (Promega) was added to each well. The plate was shaken at 130 rpm for 15 minutes at room temperature, and the cell viability was determined using a luminescence plate reader. All compounds were tested using the human cell line HEK STF293. This cell line carries a Wnt reporter (TCF/LEF1 promoter), which drives expression of the firefly luciferase protein. The level of Wnt activity is directly correlated with the level of luciferase activity (determined using a simple assay). Compounds that inhibit Wnt signaling by reducing luciferase activity in these two cell lines are further tested biochemically. […] Compounds were further tested in a Viability assay using Wnt-dependent HCT116 cell line. HEK293 cells were seeded in a 6-well plate at approximately 8.0×10^5 cells (2 mL per well). On the first day, Wnt3a-conditioned media (1:1) and compounds (1:100) were added to the plated cells. The final concentrations of compounds were 1 μM, 500 nM, and 100 nM. Vehicle (DMSO) and a Wnt3a-conditioned media plus Vehicle samples were also prepared as controls. Lysates were collected (with non-denaturing lysis buffer) after 24 hours incubation, and protein concentrations determined by Bradford Assay. Immunoblotting with an anti-beta-catenin antibody (equivalent amounts of protein/lane for each condition) were subsequently performed to determine beta-catenin levels. HCT116 cells were seeded at 2,500 cells/well in a 96-well dish (Volume: 100 μL/well). On the second day, the 10 mM stock solution of each test compound was thawed at room temperature. Dilutions of the test compound were prepared in DMSO in a V-bottom 96-well plate. The stock compound solution, DMSO-diluted compound solutions, and DMSO were further diluted 500-fold in cell culture media, and 100 μL of the compound- or DMSO-containing cell culture media was added to each well of the cells. […] The final DMSO concentration was 0.1% in all wells. On the fifth day, 150 μL of media was removed from each well. 50 μL/well Cell Titer Glo reagent (Promega) was added to each well. The plate was shaken at 130 rpm for 15 minutes at room temperature, and the cell viability was determined using a luminescence plate reader. […]

[3] = Homo sapiens, STF/293, Examples for Formulae (I), (II), and (III), HEK STF293 cells, Wnt3a-conditioned media, read-out: TOPFlash IC50 category
[4] = Homo sapiens, HCT-116, Examples for Formulae (I), (II), and (III), HCT116 cells, read-out: Viability IC50 category
[5] = Homo sapiens, STF/293, Examples for Formulae (VIII), (IX), and (X), HEK STF293 cells, Wnt3a-conditioned media, read-out: TOPFlash IC50 category
[6] = Homo sapiens, HCT-116, Examples for Formulae (VIII), (IX), and (X), HCT116 cells, read-out: Viability IC50 category
[7] = Homo sapiens, STF/293, Examples for Formulae (IV), (V), (VI), and (VII), HEK STF293 cells, Wnt3a-conditioned media, read-out: TOPFlash IC50 category
[8] = Homo sapiens, HCT-116, Examples for Formulae (IV), (V), (VI), and (VII), HCT116 cells, read-out: Viability IC50 category
[9] = Examples for Formulae (IV), (V), (VI), and (VII), HEK STF293 cells, Wnt3a-conditioned media, read-out: TOPFlash IC50 category
[10] = Examples for Formulae (IV), (V), (VI), and (VII), HCT116 cells, read-out: Viability IC50 category
[11] = Homo sapiens, STF/293, read-out: TOPFlash IC50 category
[12] = Homo sapiens, HCT-116, read-out: Viability IC50 category

Compound: Cc1nn(-c2ccc(F)cc2)c(C)c1C(=O)Nc1nc(-c2ccccn2)cs1 [Example 5]
- IC50 [1, 3]: 1000 to 10000 nM
- IC50 [2, 4]: 1000 to 10000 nM

Compound: O=C(Nc1nc(-c2ccccn2)cs1)c1cc(Cl)c(=O)n(Cc2ccc(C(F)(F)F)cc2)c1 [Example 8]
- IC50 [1, 5]: 500 to 1000 nM
- IC50 [2, 6]: 200 to 500 nM

Compound: CC(C)S(=O)(=O)N(C)c1nc(-c2ccc(F)cc2)c(C(=O)Nc2nc(-c3ccccn3)cs2)o1 [Example 58]
- IC50 [1, 7]: < 200 nM
- IC50 [2, 8]: < 200 nM

Compound: CN(c1ncc(C(=O)Nc2nc(-c3ccccn3)cs2)o1)S(=O)(=O)c1ccc(Cl)cc1 [Example 38]
- IC50 [1, 9]: 200 to 500 nM
- IC50 [2, 10]: 500 to 1000 nM

Compound: CS(=O)(=O)c1ccc(-n2nccc2C(=O)Nc2nc(-c3ccccn3)co2)cc1 [Example 1]
- IC50 [1, 5]: 200 to 500 nM
- IC50 [2, 6]: < 200 nM

Compound: Cc1onc(-c2ccccc2Cl)c1C(=O)Nc1nc(-c2ccccn2)cs1 [Example 28]
- IC50 [1, 11]: 200 to 500 nM
- IC50 [2, 12]: 200 to 500 nM

Compound: O=C(Nc1nc(-c2ccccn2)cs1)c1ccn(Cc2ccc(F)cc2)c(=O)c1 [Example 9]
- IC50 [1, 5]: 1000 to 10000 nM
- IC50 [2, 6]: 1000 to 10000 nM

Compound: Cc1nc(N(C)S(=O)(=O)c2ccccc2Cl)oc1C(=O)Nc1nc(-c2ccccn2)cs1 [Example 49]
- IC50 [1, 7]: 200 to 500 nM
- IC50 [2, 8]: 500 to 1000 nM

Compound: O=C(Nc1nc(-c2ccccn2)cs1)c1ccc(=O)n(-c2ccccc2F)c1 [Example 3]
- IC50 [1, 5]: 200 to 500 nM
- IC50 [2, 6]: 500 to 1000 nM

Compound: Cc1nc(-c2ccccc2F)c(C(=O)Nc2nc(-c3ccccn3)cs2)o1 [Example 10]
- IC50 [1, 7]: < 200 nM
- IC50 [2, 8]: 200 to 500 nM

Compound: Cc1nn(Cc2ccc(Cl)cc2Cl)c(Cl)c1C(=O)Nc1nc(-c2ccccn2)cs1 [Example 13]
- IC50 [1, 3]: 500 to 1000 nM
- IC50 [2, 4]: 500 to 1000 nM

Compound: CCc1nc(-c2ccc(F)cc2)c(C(=O)Nc2nc(-c3ccccn3)cs2)o1 [Example 13]
- IC50 [1, 7]: < 200 nM
- IC50 [2, 8]: < 200 nM

Compound: Cc1onc(-c2cccs2)c1C(=O)Nc1nc(-c2ccccn2)cs1 [Example 1]
- IC50 [1, 7]: < 200 nM
- IC50 [2, 8]: 200 to 500 nM

Compound: CC(C)(C)c1nc(-c2ccc(F)cc2)c(C(=O)Nc2nc(-c3ccccn3)cs2)o1 [Example 23]
- IC50 [1, 11]: 200 to 500 nM
- IC50 [2, 12]: 200 to 500 nM

Compound: CN(c1ncc(C(=O)O)o1)S(=O)(=O)c1ccc(Cl)cc1 [Example 37]
- IC50 [1, 9]: < 200 nM
- IC50 [2, 10]: 200 to 500 nM

Compound: O=C(Nc1nc(-c2ccccn2)cs1)c1oc(CN2CCOCC2)nc1-c1ccc(F)cc1 [Example 72]
- IC50 [1, 7]: 200 to 500 nM
- IC50 [2, 8]: 200 to 500 nM

Compound: Cc1onc(-c2c(F)cccc2Cl)c1C(=O)Nc1nc(-c2ccccn2)cs1 [Example 14]
- IC50 [1, 7]: < 200 nM
- IC50 [2, 8]: 200 to 500 nM

Compound: CS(=O)(=O)c1ccccc1-c1ncoc1C(=O)Nc1nc(-c2ccccn2)cs1 [Example 44]
- IC50 [1, 9]: 1000 to 10000 nM
- IC50 [2, 10]: 500 to 1000 nM

Compound: O=C(Nc1nc(-c2ccccn2)cs1)c1oc(C(F)F)nc1-c1ccc(F)cc1 [Example 33]
- IC50 [1, 9]: < 200 nM
- IC50 [2, 10]: 200 to 500 nM

Compound: Cc1noc(-c2ccccc2)c1C(=O)Nc1nc(-c2ccccn2)cs1 [Example 3]
- IC50 [1, 7]: 200 to 500 nM
- IC50 [2, 8]: 200 to 500 nM

Compound: O=C(Nc1nc(-c2ccccn2)cs1)c1cccnc1Oc1ccc(C(F)(F)F)cc1 [Example 13]
- IC50 [1, 5]: 200 to 500 nM
- IC50 [2, 6]: 500 to 1000 nM

Compound: Cc1onc(-c2cccc(F)c2F)c1C(=O)Nc1nc(-c2ccccn2)cs1 [Example 19]
- IC50 [1, 7]: 200 to 500 nM
- IC50 [2, 8]: 200 to 500 nM

Compound: O=C(Nc1nc(-c2ccccn2)cs1)c1ccc(=O)n(Cc2ccc(C(F)(F)F)cc2)c1 [Example 7]
- IC50 [1, 5]: 200 to 500 nM
- IC50 [2, 6]: 200 to 500 nM

From patent US20250257061A1, “COMPOSITIONS AND METHODS FOR TREATING CANCER AND REDUCING WNT MEDIATED EFFECTS” (StemSynergy Therapeutics, Inc., priority 2024, published 2025)
